Experimental data as given in PubChem BioAssay AID248 (DTP/NCI, 2004).
Inconclusive results and toxic doses are left out. Rule as the data show it: active = T/C of 150% or more; inactive = T/C below 125%.

System: L1210 leukemia ip in BDF1 mice, survival T/C
Assay: NCI In Vivo Anticancer Drug Screen. Data for tumor model L1210 Leukemia (intraperitoneal) in B6D2F1 (BDF1) mice
Settings: endpoint: mean survival time, higher = longer survival
Method in brief: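 Mice bearing the transplanted tumor received compound or vehicle. Survival of the treated group was divided by that of the vehicle-treated control group to give the ratio.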

[1] = dose: 100.0 mg/kg/injection, schedule: Q01DX001 (ip), vehicle: saline
[2] = dose: 100.0 mg/kg/injection, schedule: Q01DX009 (ip), vehicle: saline
[3] = dose: 200.0 mg/kg/injection, schedule: Q01DX001 (ip), vehicle: saline
[4] = dose: 200.0 mg/kg/injection, schedule: Q01DX009 (ip), vehicle: saline
[5] = dose: 400.0 mg/kg/injection, schedule: Q01DX001 (ip), vehicle: saline
[6] = dose: 400.0 mg/kg/injection, schedule: Q01DX009 (ip), vehicle: saline
[7] = dose: 50.0 mg/kg/injection, schedule: Q01DX009 (ip), vehicle: saline
[8] = dose: 100.0 mg/kg/injection, schedule: Q01DX009 (ip), vehicle: saline with Tween-80

Measured: T/C

CC1CN1C(=O)c1cc(C(=O)N2CC2C)cc(C(=O)N2CC2C)c1 (stereo not drawn)
inactive: dose: 15.0 mg/kg/injection, schedule: Q01DX001 (ip), vehicle: saline 102 % of control | dose: 15.0 mg/kg/injection, schedule: Q04DX003 (ip), vehicle: saline 98 % of control | dose: 30.0 mg/kg/injection, schedule: Q01DX001 (ip), vehicle: saline 105 % of control | dose: 30.0 mg/kg/injection, schedule: Q04DX003 (ip), vehicle: saline 98 % of control | dose: 60.0 mg/kg/injection, schedule: Q01DX001 (ip), vehicle: saline 102 % of control | dose: 60.0 mg/kg/injection, schedule: Q04DX003 (ip), vehicle: saline 102 % of control

CCOC(=O)c1sc2cc[nH]c2c1O
inactive: dose: 50.0 mg/kg/injection, schedule: Q01DX001 (ip), vehicle: Klucel (hydroxypropylcellulose) (HPC) 102 % of control | dose: 100.0 mg/kg/injection, schedule: Q01DX001 (ip), vehicle: Klucel (hydroxypropylcellulose) (HPC) 100 % of control | dose: 200.0 mg/kg/injection, schedule: Q01DX001 (ip), vehicle: Klucel (hydroxypropylcellulose) (HPC) 94 % of control

O=C(O)C/C1=C/CCCCCC1
inactive: [1] 96 % of control | [2] 96 % of control | [3] 92 % of control | [4] 96 % of control | [5] 101 % of control | [6] 93 % of control

COc1ccc(C2CCc3cc(OC)c(OC)cc3C2=O)cc1OC (stereo not drawn)
inactive: dose: 20.0 mg/kg/injection, schedule: Q01DX009 (ip), vehicle: saline with Tween-80 93 % of control | dose: 40.0 mg/kg/injection, schedule: Q01DX009 (ip), vehicle: saline with Tween-80 94 % of control | dose: 80.0 mg/kg/injection, schedule: Q01DX009 (ip), vehicle: saline with Tween-80 90 % of control | dose: 120.0 mg/kg/injection, schedule: Q01DX009 (ip), vehicle: saline with Tween-80 93 % of control | dose: 120.0 mg/kg/injection, schedule: Q01DX009 (ip), vehicle: saline 107 % of control | dose: 240.0 mg/kg/injection, schedule: Q01DX009 (ip), vehicle: saline with Tween-80 96 % of control | dose: 240.0 mg/kg/injection, schedule: Q01DX009 (ip), vehicle: saline 96 % of control | dose: 360.0 mg/kg/injection, schedule: Q01DX009 (ip), vehicle: saline 93 % of control | dose: 545.0 mg/kg/injection, schedule: Q01DX009 (ip), vehicle: saline 91 % of control

CN(C)C(=O)c1ccccc1Cl
inactive: dose: 100.0 mg/kg/injection, schedule: Q04DX003 (ip), vehicle: acetone 92 % of control | dose: 200.0 mg/kg/injection, schedule: Q04DX003 (ip), vehicle: acetone 94 % of control | dose: 400.0 mg/kg/injection, schedule: Q04DX003 (ip), vehicle: acetone 105 % of control

COc1ccc(NC(=S)NC2CCCCC2)cc1
inactive: dose: 100.0 mg/kg/injection, schedule: Q04DX003 (ip), vehicle: other 94 % of control | dose: 200.0 mg/kg/injection, schedule: Q04DX003 (ip), vehicle: other 88 % of control | dose: 400.0 mg/kg/injection, schedule: Q04DX003 (ip), vehicle: other 90 % of control

Cc1cc(O)c2c(c1O)C(=O)c1ccccc1C2=O
inactive: [7] 95 % of control | [2] 95 % of control | dose: 100.0 mg/kg/injection, schedule: Q04DX003 (ip), vehicle: saline 98 % of control | [4] 95 % of control | dose: 200.0 mg/kg/injection, schedule: Q04DX003 (ip), vehicle: saline 96 % of control | [6] 104 % of control | dose: 400.0 mg/kg/injection, schedule: Q04DX003 (ip), vehicle: saline 93 % of control

Cc1ccc(S(=O)(=O)N/N=C/C(O)C(O)C(O)C(O)CO)cc1 (stereo not drawn)
inactive: [8] 102 % of control | dose: 200.0 mg/kg/injection, schedule: Q01DX009 (ip), vehicle: saline with Tween-80 102 % of control | dose: 400.0 mg/kg/injection, schedule: Q01DX009 (ip), vehicle: saline with Tween-80 100 % of control

COC1OC2COc3ccccc3OC2C(N)C1N(C)c1ccccc1 (stereo not drawn)
inactive: dose: 18.75 mg/kg/injection, schedule: Q01DX001 (ip), vehicle: saline with Tween-80 98 % of control | dose: 37.5 mg/kg/injection, schedule: Q01DX001 (ip), vehicle: saline with Tween-80 96 % of control | dose: 75.0 mg/kg/injection, schedule: Q01DX001 (ip), vehicle: saline with Tween-80 93 % of control

CC12CCC(CC(=O)O1)C2(C)C (stereo not drawn)
inactive: dose: 75.0 mg/kg/injection, schedule: Q01DX001 (ip), vehicle: saline 114 % of control

NC(=O)C1C(=O)OC2(CC2)C1c1ccccc1 (stereo not drawn)
inactive: [1] 86 % of control | [3] 93 % of control

Cc1cc2c(N)[nH]c(=O)nc2s1
inactive: dose: 100.0 mg/kg/injection, schedule: Q04DX003 (ip), vehicle: water 90 % of control | dose: 200.0 mg/kg/injection, schedule: Q04DX003 (ip), vehicle: water 93 % of control

CCOC(=O)C1C(=O)C(N=Nc2ccc(-c3ccc(N=NC4C(=O)C(C(=O)OCC)C(c5ccc(O)c(OC)c5)C(C(=O)OCC)C4=O)cc3)cc2)C(=O)CC1c1ccc(O)c(OC)c1 (stereo not drawn)
inactive: dose: 100.0 mg/kg/injection, schedule: Q01DX001 (ip), vehicle: other 96 % of control | dose: 200.0 mg/kg/injection, schedule: Q01DX001 (ip), vehicle: other 103 % of control

Oc1c(Br)cc(Nc2c3ccccc3nc3ccccc23)cc1Br
inactive: dose: 100.0 mg/kg/injection, schedule: Q04DX002 (ip), vehicle: saline with Tween-80 100 % of control | dose: 200.0 mg/kg/injection, schedule: Q04DX002 (ip), vehicle: saline with Tween-80 95 % of control | dose: 400.0 mg/kg/injection, schedule: Q04DX002 (ip), vehicle: saline with Tween-80 100 % of control

Cc1ccccc1CN1CCN(CCOC(c2ccccc2)c2ccccc2Cl)CC1 (stereo not drawn)
inactive: dose: 12.5 mg/kg/injection, schedule: Q01DX009 (ip), vehicle: Klucel (hydroxypropylcellulose) (HPC) 97 % of control | dose: 25.0 mg/kg/injection, schedule: Q01DX009 (ip), vehicle: Klucel (hydroxypropylcellulose) (HPC) 97 % of control | dose: 25.0 mg/kg/injection, schedule: Q04DX003 (ip), vehicle: Klucel (hydroxypropylcellulose) (HPC) 107 % of control | dose: 50.0 mg/kg/injection, schedule: Q01DX009 (ip), vehicle: Klucel (hydroxypropylcellulose) (HPC) 102 % of control | dose: 50.0 mg/kg/injection, schedule: Q04DX003 (ip), vehicle: Klucel (hydroxypropylcellulose) (HPC) 100 % of control | dose: 100.0 mg/kg/injection, schedule: Q04DX003 (ip), vehicle: Klucel (hydroxypropylcellulose) (HPC) 105 % of control | dose: 200.0 mg/kg/injection, schedule: Q04DX003 (ip), vehicle: Klucel (hydroxypropylcellulose) (HPC) 100 % of control

CCCCCCCCCCCCCCSSCCCCCCCCCCCCCC
inactive: [1] 98 % of control | [3] 92 % of control | [5] 96 % of control

Cc1cc2ncn(CC(=O)NN)c2cc1C
inactive: [8] 86 % of control | dose: 100.0 mg/kg/injection, schedule: Q04DX003 (ip), vehicle: saline with Tween-80 92 % of control | dose: 200.0 mg/kg/injection, schedule: Q04DX003 (ip), vehicle: saline with Tween-80 95 % of control | dose: 400.0 mg/kg/injection, schedule: Q04DX003 (ip), vehicle: saline with Tween-80 92 % of control

NC(=S)N/N=C/c1ccc([N+](=O)[O-])cc1
inactive: dose: 12.5 mg/kg/injection, schedule: Q01DX001 (ip), vehicle: saline with Tween-80 95 % of control | dose: 25.0 mg/kg/injection, schedule: Q01DX001 (ip), vehicle: saline with Tween-80 95 % of control | dose: 50.0 mg/kg/injection, schedule: Q01DX001 (ip), vehicle: saline with Tween-80 91 % of control

COc1cc2cc[n+]3c(C)c4cc5c(cc4cc3c2cc1OC)OCO5 (tested in a mixture with another compound)
inactive: dose: 2.5 mg/kg/injection, schedule: Q01DX009 (ip), vehicle: saline 109 % of control | dose: 5.0 mg/kg/injection, schedule: Q01DX009 (ip), vehicle: saline 103 % of control | [7] 97 % of control
